Consider two molecules from article PMC6271965, “Inhibition of GlcNAc-Processing Glycosidases by C-6-Azido-NAG-Thiazoline and Its Derivatives” (Molecules, 2014).

Where two headings read alike, the source gives them in different places.

Common to all, as to experiment: pNP-β-GlcNAc hydrolysis, kinetic assay at […] nm
Common to all, as to assay type: biochemical

Test [1] addresses T1, β-N-acetylhexosaminidase from Streptomyces plicatus (Streptomyces plicatus, UniProt O85361).
T1 construct: gene hex; synthetic gene, His6-tagged fusion in pET-15b (NdeI/BamHI), E. coli BL21(DE3) pLysS, Ni-NTA purified; GH20
T1 sequence (O85361 1-506): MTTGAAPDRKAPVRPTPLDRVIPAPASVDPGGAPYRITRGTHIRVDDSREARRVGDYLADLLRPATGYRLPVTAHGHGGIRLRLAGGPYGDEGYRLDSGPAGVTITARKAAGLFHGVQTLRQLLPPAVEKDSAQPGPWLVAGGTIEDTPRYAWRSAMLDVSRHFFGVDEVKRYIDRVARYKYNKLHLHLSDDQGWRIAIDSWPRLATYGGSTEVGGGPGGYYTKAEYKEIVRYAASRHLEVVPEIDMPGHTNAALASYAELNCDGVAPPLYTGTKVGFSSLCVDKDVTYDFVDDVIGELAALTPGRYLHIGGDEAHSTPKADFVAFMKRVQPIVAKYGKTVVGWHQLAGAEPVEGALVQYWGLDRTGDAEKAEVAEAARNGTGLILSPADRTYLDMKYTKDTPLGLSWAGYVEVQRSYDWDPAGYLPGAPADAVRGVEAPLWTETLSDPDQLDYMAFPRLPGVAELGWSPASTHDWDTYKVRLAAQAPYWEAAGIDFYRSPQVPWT
Particulars: read-out: KI [μM] / NAG-thiazoline (1).

Test [2] concerns the target T2, O-GlcNAcase from Bacteroides thetaiotaomicron (Bacteroides thetaiotaomicron, UniProt Q89ZI2).
T2 construct: gene BT_4395; gene from D. Vocadlo; GH84
T2 sequence (Q89ZI2 22-737): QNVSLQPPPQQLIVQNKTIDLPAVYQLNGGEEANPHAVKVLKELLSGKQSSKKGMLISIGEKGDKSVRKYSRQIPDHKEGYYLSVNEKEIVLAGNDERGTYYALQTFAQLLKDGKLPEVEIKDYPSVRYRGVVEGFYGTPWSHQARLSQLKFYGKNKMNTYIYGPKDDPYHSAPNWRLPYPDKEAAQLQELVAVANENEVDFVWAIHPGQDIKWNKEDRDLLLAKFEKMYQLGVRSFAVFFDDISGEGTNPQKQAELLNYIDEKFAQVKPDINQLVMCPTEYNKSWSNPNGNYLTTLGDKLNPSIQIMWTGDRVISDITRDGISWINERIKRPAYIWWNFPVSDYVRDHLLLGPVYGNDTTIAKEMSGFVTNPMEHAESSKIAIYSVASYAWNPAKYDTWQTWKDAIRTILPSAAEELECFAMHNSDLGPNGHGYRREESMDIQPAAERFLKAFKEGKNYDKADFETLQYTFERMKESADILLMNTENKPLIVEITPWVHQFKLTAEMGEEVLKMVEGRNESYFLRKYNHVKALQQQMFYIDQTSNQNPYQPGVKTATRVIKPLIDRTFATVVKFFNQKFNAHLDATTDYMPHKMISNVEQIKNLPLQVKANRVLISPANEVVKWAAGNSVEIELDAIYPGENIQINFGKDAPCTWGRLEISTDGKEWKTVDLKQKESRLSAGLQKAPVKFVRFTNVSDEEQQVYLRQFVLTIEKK

Test [3] has as its target T3, β-N-acetylhexosaminidase from Talaromyces flavus (Talaromyces flavus, UniProt G5DAA0).
T3 construct: recombinant, secreted from Pichia pastoris, purified by cation exchange chromatography; GH20

A further test deals with T4, human O-GlcNAcase (Homo sapiens, UniProt O60502).
T4 construct: gene OGA; gene from D. Vocadlo; GH84
T4 sequence (O60502 1-916): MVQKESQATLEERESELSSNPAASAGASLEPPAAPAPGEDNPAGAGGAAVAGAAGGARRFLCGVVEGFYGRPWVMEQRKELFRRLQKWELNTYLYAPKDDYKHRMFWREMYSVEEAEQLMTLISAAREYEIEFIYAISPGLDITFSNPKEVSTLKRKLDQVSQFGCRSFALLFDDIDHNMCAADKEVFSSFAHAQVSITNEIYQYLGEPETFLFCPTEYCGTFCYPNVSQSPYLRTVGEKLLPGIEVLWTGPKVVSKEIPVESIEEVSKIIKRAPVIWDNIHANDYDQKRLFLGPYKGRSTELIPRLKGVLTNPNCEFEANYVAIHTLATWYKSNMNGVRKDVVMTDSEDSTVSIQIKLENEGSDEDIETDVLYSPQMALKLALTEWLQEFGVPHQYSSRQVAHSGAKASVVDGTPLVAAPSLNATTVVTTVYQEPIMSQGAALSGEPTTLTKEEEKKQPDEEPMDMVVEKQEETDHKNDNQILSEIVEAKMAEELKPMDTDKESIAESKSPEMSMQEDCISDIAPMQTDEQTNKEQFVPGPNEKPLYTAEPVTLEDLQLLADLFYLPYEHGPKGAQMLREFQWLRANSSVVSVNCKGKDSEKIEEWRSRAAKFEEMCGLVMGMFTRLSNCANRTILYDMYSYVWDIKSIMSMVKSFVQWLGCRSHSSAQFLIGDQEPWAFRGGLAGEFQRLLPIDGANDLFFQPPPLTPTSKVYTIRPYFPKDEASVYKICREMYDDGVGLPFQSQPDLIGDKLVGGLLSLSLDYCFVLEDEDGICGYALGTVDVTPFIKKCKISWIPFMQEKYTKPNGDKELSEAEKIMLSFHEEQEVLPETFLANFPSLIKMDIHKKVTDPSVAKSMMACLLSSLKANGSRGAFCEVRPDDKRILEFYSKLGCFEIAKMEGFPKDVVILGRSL
To be noted: read-out: KI [μM] / C-6-azido-NAG-thiazoline (2).

Where [4] appears, read: read-out: KI [μM] / NAG-thiazoline (1).
The mark [5] stands for this setting: read-out: KI [μM] / C-6-azido-NAG-thiazoline (2).

T3 sequence (G5DAA0 18-628): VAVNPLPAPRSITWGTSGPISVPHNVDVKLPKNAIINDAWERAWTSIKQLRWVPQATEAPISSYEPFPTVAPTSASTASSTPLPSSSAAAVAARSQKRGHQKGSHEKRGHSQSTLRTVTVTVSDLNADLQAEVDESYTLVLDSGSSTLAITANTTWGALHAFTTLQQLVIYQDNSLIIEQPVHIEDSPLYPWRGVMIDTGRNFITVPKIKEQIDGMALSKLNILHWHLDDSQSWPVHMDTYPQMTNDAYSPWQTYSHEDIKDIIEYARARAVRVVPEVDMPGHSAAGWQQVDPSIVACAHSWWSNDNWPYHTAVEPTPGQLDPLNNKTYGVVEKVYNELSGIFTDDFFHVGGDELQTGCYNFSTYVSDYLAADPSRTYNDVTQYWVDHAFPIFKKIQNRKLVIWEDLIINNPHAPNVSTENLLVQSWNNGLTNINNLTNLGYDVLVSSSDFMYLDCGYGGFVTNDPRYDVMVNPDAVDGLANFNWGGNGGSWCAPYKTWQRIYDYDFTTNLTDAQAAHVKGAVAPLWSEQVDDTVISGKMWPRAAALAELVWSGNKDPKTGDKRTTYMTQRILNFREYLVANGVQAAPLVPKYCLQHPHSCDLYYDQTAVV

Consider `CC1=N[C@@H]2[C@@H](O)[C@H](O)[C@@H](CO)O[C@@H]2S1` [compound 1, 1,2-Dideoxy-2'-methyl-α-D-glucopyrano-[2,1-d]-∆2'-thiazoline], for which the figures for the Ki in test [1], in test [2] (setting [4]) and in test [3] (setting [4]) were 24 ± 5 µM, 0.029 ± 0.003 µM and 42.7 ± 1.9 µM, respectively.

`CC1=N[C@@H]2[C@@H](O)[C@H](O)[C@@H](CN=[N+]=[N-])O[C@@H]2S1` [compound 2, 6-Azido-1,2-dideoxy-2'-methyl-α-D-glucopyrano-[2,1-d]-∆2'-thiazoline]: the Ki at human O-GlcNAcase is 19.3 ± 11.9 µM; in test [2] (setting [5]) it was 3.1 ± 0.3 µM; in test [3] (setting [5]), 212 ± 16.3 µM.
